The text below walks through data of ChEMBL document CHEMBL4359887, “Hitting on the move: Targeting intrinsically disordered protein states of the MDM2-p53 interaction” (Eur J Med Chem, 2019).

For assay [1], the system named is HCT-116. The assay can be described thus: Induction of apoptosis in human HCT116 cells expressing wild type p53 assessed as live cells at 20 uM measured after 72 hrs by annexin V-FITC/propidium iodide staining-based flow cytometry analysis (reference value: 83.7 %). The format is functional. A general note: In flow cytometry, cells or beads pass a laser one at a time.

Assay [2] deals with HCT-116. The assay can be described thus: Induction of apoptosis in human HCT116 cells expressing wild type p53 assessed as early apoptotic cells expressing wild type p53 at 20 uM measured after 72 hrs by annexin V-FITC/propidium iodide staining-based flow cytometry analysis (reference value: 8.8 %). The format is functional.
The test system of assay [3] is HCT-116. Description: Induction of apoptosis in human HCT116 cells assessed as late apoptotic cells expressing wild type p53 at 20 uM measured after 72 hrs by annexin V-FITC/propidium iodide staining-based flow cytometry analysis (reference value: 6.8 %). Format: functional.
Assay [4] deals with HCT-116. Description: Induction of apoptosis in human HCT116 cells expressing wild type p53 assessed as necrotic cells at 20 uM measured after 72 hrs by annexin V-FITC/propidium iodide staining-based flow cytometry analysis (reference value: 0.7 %). Format: functional.
The target of assay [5] is T1, Protein Mdm4 (Homo sapiens, UniProt O15151).
T1 sequence (O15151 whole entry): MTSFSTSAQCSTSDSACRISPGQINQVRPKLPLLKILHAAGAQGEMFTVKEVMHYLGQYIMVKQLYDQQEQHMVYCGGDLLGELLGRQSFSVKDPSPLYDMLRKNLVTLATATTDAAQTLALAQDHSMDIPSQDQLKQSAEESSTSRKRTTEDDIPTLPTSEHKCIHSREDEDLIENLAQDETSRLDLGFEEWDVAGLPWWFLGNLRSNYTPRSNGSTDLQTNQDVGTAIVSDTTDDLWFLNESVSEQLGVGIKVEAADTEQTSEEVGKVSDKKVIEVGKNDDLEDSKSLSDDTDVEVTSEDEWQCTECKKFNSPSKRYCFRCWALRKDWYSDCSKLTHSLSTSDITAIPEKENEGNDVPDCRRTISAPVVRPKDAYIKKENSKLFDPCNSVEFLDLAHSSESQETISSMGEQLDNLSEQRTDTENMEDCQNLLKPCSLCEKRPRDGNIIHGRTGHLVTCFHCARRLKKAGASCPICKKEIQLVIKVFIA

For assay [6], the target named is E3 ubiquitin-protein ligase Mdm2 (Homo sapiens, UniProt Q00987).
Sequence of E3 ubiquitin-protein ligase Mdm2 (Q00987 whole entry): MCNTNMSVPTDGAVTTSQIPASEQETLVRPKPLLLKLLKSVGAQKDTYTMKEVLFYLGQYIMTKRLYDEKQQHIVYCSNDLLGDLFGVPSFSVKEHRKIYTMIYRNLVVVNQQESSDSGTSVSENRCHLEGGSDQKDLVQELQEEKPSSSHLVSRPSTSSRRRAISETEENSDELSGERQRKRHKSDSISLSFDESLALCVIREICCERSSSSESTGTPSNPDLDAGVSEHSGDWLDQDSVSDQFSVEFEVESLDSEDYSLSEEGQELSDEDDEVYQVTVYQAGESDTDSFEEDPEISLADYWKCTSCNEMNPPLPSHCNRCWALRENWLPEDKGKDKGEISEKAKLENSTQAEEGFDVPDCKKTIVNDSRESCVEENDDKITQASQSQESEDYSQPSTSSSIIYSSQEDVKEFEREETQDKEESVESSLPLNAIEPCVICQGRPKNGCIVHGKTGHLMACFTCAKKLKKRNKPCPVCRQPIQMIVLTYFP

In the case of `CCOC(=O)c1[nH]c2cc(Cl)ccc2c1C(C(=O)NC(C)(C)C)N(C=O)Cc1ccc(OCc2ccc(Cl)c(Cl)c2)cc1` (stereo not drawn), the Activity in assay [1] was determined as 30%; in assay [2] it was 27.1%; in assay [3], 42.4%; in assay [4] it was 0.4%.

For `CC(C)(C)NC(=O)C(c1c(C(=O)O)[nH]c2cc(Cl)ccc12)N(C=O)CCc1ccc(OCc2ccc(Br)cc2)cc1` (stereo not drawn), in assay [5], the Ki entry was “Not Active”.

As for `CC(C)(C)NC(=O)C(c1c(C(=O)O)[nH]c2cc(Cl)ccc12)N(C=O)Cc1ccc(OCCc2ccccc2)cc1` (stereo not drawn), the Activity is 80.7% in assay [1], 8.1% in assay [2], 10.7% in assay [3] and 0.5% in assay [4]. Moreover, in assay [5], the Ki entry is “Not Active”.

For the compound `CC(C)(C)NC(=O)C(c1c(C(=O)O)[nH]c2cc(Cl)ccc12)N(C=O)CCCN1CCOCC1` (stereo not drawn), in assay [5], the Ki result is “Not Active”.

Regarding `CC(C)(C)NC(=O)C(c1c(C(=O)O)[nH]c2cc(Cl)ccc12)N(C=O)Cc1ccc(OCc2ccc([N+](=O)[O-])cc2)cc1` (stereo not drawn), the Ki result in assay [6] and in assay [5] was “Not Active” in each case.

For the compound `CCOC(=O)c1[nH]c2cc(Cl)ccc2c1C(C(=O)NC(C)(C)C)N(C=O)Cc1ccc(OCc2cccc(Cl)c2)cc1` (stereo not drawn), the Activity is 34.5% in assay [1], 21.6% in assay [2], 42.7% in assay [3] and 1.2% in assay [4].

As to `CC(C)(C)NC(=O)C(c1c(C(=O)O)[nH]c2cc(Cl)ccc12)N(C=O)Cc1ccc(OCc2cc(F)cc(F)c2)cc1` (stereo not drawn), the Activity in assay [1] turned out to be 79.6%; in assay [2], 11.9%; in assay [3], 7.9%; in assay [4], 0.7%.

On to `CC(=O)N(Cc1ccc(OCc2ccc(F)cc2)cc1)C(C(=O)NC1CCCCC1)c1c(C(=O)O)[nH]c2cc(Cl)ccc12` (stereo not drawn), for which the Ki entry in assay [5] is “Not Active”.

For `CC(C)(C)NC(=O)C(NCc1ccc(OCc2ccccc2Br)cc1)c1c(C(=O)O)[nH]c2cc(Cl)ccc12` (stereo not drawn), the Ki entry in assay [5] is “Not Active”.

Regarding `CC(C)(C)NC(=O)C(c1c(C(=O)O)[nH]c2cc(Cl)ccc12)N(C=O)Cc1ccc(OCc2ccccc2Br)cc1` (racemic), the Activity was determined as 69.1% in assay [1], 15.4% in assay [2], 14.6% in assay [3] and 1% in assay [4].

Consider `O=CN(Cc1ccc(OCc2ccc(F)cc2)cc1)C(C(=O)NC12CC3CC(CC(C3)C1)C2)c1c(C(=O)O)[nH]c2cc(Cl)ccc12` (stereo not drawn), for which the Ki result in assay [6] and in assay [5] was “Not Active” in each case.

Consider `CC(C)(C)NC(=O)C(c1c(C(=O)O)[nH]c2cc(Cl)ccc12)N(C=O)Cc1ccc(OCc2ccncc2)cc1` (stereo not drawn), for which, in assay [5], the Ki entry is “Not Active”.

As for `CCOC(=O)c1[nH]c2cc(Cl)ccc2c1C(C(=O)NC(C)(C)C)N(C=O)Cc1ccc(OCc2ccc(Br)cc2)cc1` (stereo not drawn), the Activity in assay [1] came to 37.4%; in assay [2] it was 42.7%; in assay [3], 19.1%; in assay [4], 0.8%.

For the compound `CCOC(=O)c1[nH]c2cc(Cl)ccc2c1C(C(=O)NC(C)(C)C)N(C=O)Cc1ccc(NCc2ccc(Br)cc2)cc1` (stereo not drawn), the Activity in assay [1] was 58.6%; in assay [2], 15.2%; in assay [3], 23.6%; in assay [4], 2.6%. Further, the Ki result in assay [5] was “Not Active”.

As for `O=CN(CCc1ccccc1)C(C(=O)NC12CC3CC(CC(C3)C1)C2)c1c(C(=O)O)[nH]c2cc(Cl)ccc12` (stereo not drawn), the Ki result in assay [5] is recorded as “Not Active”.

With `CC(C)(C)NC(=O)C(c1c(C(=O)O)[nH]c2cc(Cl)ccc12)N(C=O)Cc1ccc(OCc2ccc(Cl)c(Cl)c2)cc1` (stereo not drawn), the Activity in assay [1] stood at 81.2%; in assay [2], 10%; in assay [3] it was 7.7%; in assay [4], 1.1%.

`CC(=O)N(Cc1ccc(OCc2ccccc2)cc1)C(C(=O)NC12CC3CC(CC(C3)C1)C2)c1c(C(=O)O)[nH]c2cc(Cl)ccc12` (stereo not drawn): in assay [5], the Ki result is “Not Active”.

Take `CC(C)(C)NC(=O)C(c1c(C(=O)O)[nH]c2cc(Cl)ccc12)N(C=O)Cc1ccc(NCc2ccc(Br)cc2)cc1` (stereo not drawn): the Activity was 65.6% in assay [1], 9.6% in assay [2], 18.8% in assay [3] and 6% in assay [4].

Take `Cc1ccc(COc2ccc(CN(C=O)C(C(=O)NC(C)(C)C)c3c(C(=O)O)[nH]c4cc(Cl)ccc34)cc2)cc1` (stereo not drawn): the Activity worked out at 76.2% in assay [1], 10.3% in assay [2], 8.7% in assay [3] and 4.7% in assay [4].

Take `CC(C)(C)NC(=O)C(c1c(C(=O)O)[nH]c2cc(Cl)ccc12)N(C=O)Cc1ccc(OCc2cccc(Cl)c2)cc1` (stereo not drawn): the Activity came out at 81% in assay [1], 10.2% in assay [2], 7.9% in assay [3] and 0.9% in assay [4].

In the case of `CCOC(=O)c1[nH]c2cc(Cl)ccc2c1C(C(=O)NC(C)(C)C)N(C=O)Cc1ccc(OCc2ccc(C)cc2)cc1` (stereo not drawn), the Activity is 13% in assay [1], 37.3% in assay [2], 48.8% in assay [3] and 0.9% in assay [4].

With `CC(C)(C)NC(=O)C(c1c(C(=O)NCCN2CCOCC2)[nH]c2cc(Cl)ccc12)N(C=O)Cc1ccc(OCc2ccccc2Br)cc1` (stereo not drawn), the Ki entry in assay [5] was “Not Active”.

On to `Cn1c(C(=O)O)c(C(C(=O)NC(C)(C)C)N(C=O)Cc2ccc(OCc3ccccc3Br)cc2)c2ccc(Cl)cc21` (stereo not drawn), for which the Ki result in assay [6] and in assay [5] was “Not Active” in each case.

For `CC(C)(C)NC(=O)C(c1c(C(=O)O)[nH]c2cc(Cl)ccc12)N(C=O)Cc1ccc(OCc2ccsc2)cc1` (stereo not drawn), the Ki entry in assay [6] and in assay [5] was “Not Active” each time.

Consider `O=CN(CCc1ccccc1)C(C(=O)NCCc1ccccc1)c1c(C(=O)O)[nH]c2cc(Cl)ccc12` (stereo not drawn), for which, in assay [5], the Ki result was “Not Active”.

As for `CC(C)(C)NC(=O)C(c1c(C(=O)O)[nH]c2cc(Cl)ccc12)N(C=O)Cc1cc(F)c(OCc2ccccc2)c(F)c1` (stereo not drawn), the Ki result in assay [5] is “Not Active”.

With `CCOC(=O)c1[nH]c2cc(Cl)ccc2c1C(C(=O)NC(C)(C)C)N(C=O)Cc1ccc(OCc2cccc(OC)c2)cc1` (stereo not drawn), the Activity in assay [1] is on record as 84.8%; in assay [2] it was 8.3%; in assay [3] it was 6.1%; in assay [4], 0.8%.

Take `CCOC(=O)c1[nH]c2cc(Cl)ccc2c1C(C(=O)NC(C)(C)C)N(C=O)Cc1ccc(OCCc2ccccc2)cc1` (stereo not drawn): the Activity in assay [1] was determined as 12.6%; in assay [2], 46.6%; in assay [3] it was 40.2%; in assay [4], 0.7%.

As to `CCOC(=O)c1[nH]c2cc(Cl)ccc2c1C(C(=O)NC(C)(C)C)N(C=O)Cc1ccc(OCc2cc(F)cc(F)c2)cc1` (stereo not drawn), the Activity is on record as 14.1% in assay [1], 45.2% in assay [2], 40.2% in assay [3] and 0.5% in assay [4].

As for `COc1cccc(COc2ccc(CN(C=O)C(C(=O)NC(C)(C)C)c3c(C(=O)O)[nH]c4cc(Cl)ccc34)cc2)c1` (stereo not drawn), the Activity is listed as 76.8% in assay [1], 13.5% in assay [2], 8.9% in assay [3] and 0.8% in assay [4].

`CC(C)(C)NC(=O)C(c1c(C(=O)O)[nH]c2cc(Cl)ccc12)N(C=O)Cc1ccc(OCc2c(Cl)cccc2Cl)cc1` (stereo not drawn): in assay [5], the Ki entry was “Not Active”.

`O=CN(Cc1ccc(OCc2ccc(Br)cc2)cc1)C(C(=O)NC12CC3CC(CC(C3)C1)C2)c1c(C(=O)O)[nH]c2cc(Cl)ccc12` (stereo not drawn): in assay [5], the Ki entry is “Not Active”.

Consider `CC(C)(C)NC(=O)C(c1c(C(=O)O)[nH]c2cc(Cl)ccc12)N(C=O)Cc1ccc(OCc2ccc(Br)cc2)cc1` (stereo not drawn), for which the Activity in assay [1] came out at 77.9%; in assay [2] it was 9.8%; in assay [3] it was 11.6%; in assay [4] it was 0.7%.

Take `CCOC(=O)c1[nH]c2cc(Cl)ccc2c1C(C(=O)NC(C)(C)C)N(C=O)Cc1ccc(OCc2ccccc2Br)cc1` (stereo not drawn): the Activity came out at 9.9% in assay [1], 32.3% in assay [2], 57.2% in assay [3] and 0.7% in assay [4].

As for `CC(C)(C)NC(=O)C(c1c(C(=O)O)[nH]c2cc(Cl)ccc12)N(C=O)Cc1ccc(OCc2ccccc2I)cc1` (stereo not drawn), the Activity was 84.4% in assay [1], 7.1% in assay [2], 6.9% in assay [3] and 1.3% in assay [4].

Turning to `CCOC(=O)c1[nH]c2cc(Cl)ccc2c1C(C(=O)NC(C)(C)C)N(C=O)Cc1ccc(OCc2ccsc2)cc1` (stereo not drawn), the Ki result in assay [5] was “Not Active”.

For `CCOC(=O)c1[nH]c2cc(Cl)ccc2c1C(C(=O)NC(C)(C)C)N(C=O)Cc1ccc(OCc2ccccc2I)cc1` (stereo not drawn), the Activity in assay [1] was 86.3%; in assay [2], 6.3%; in assay [3], 6.2%; in assay [4], 1.3%.
